Results as given in patent EP2896688A1 (Centre National de la Recherche Scientifique (CNRS), priority 2014, dated 2015).

Assays:
[1] = test system: E13.5 rat embryonic pancreases; test: Beta cell development (insulin staining surface) in cultured embryonic pancreases; type: cell-based; conditions: for insulin staining surface: day 7, NAC at 10 µM or CCCP at 1 µM
Excerpt: The embryos were harvested on E13.5. […] On every image, the surface area of insulin staining was quantified using ImageJ as described in (Heinis et al.).

[2] = test system: E13.5 rat embryonic pancreases; test: Number of NGN3-positive cells by immunohistochemistry in cultured embryonic pancreases; type: cell-based; conditions: for number of NGN3-positive endocrine progenitor cells, decrease: 1 day, NAC at 10 µM or CCCP at 1 µM
Procedure: (§1) The embryos were harvested on E13.5. The dorsal pancreatic bud was dissected, as described previously (Attali et al., 2007). For the depletion of the mesenchyme, the digestive tract was incubated with 0.5 mg/ml collagenase A (Roche, Meyaln, France) at 37°c for 30 min, then washed several times with Hank's balanced solution (Invitrogen, Cergy-Pontoise, France) at 4°c, and the epithelium was mechanically separated from the mesenchyme using needles on 0.25% agar, 25% Hank's balanced solution and 75% RPMI gel (Life Technologies, Invitrogen) in a petri dish. Pancreatic rudiments (epithelium with mesenchyme) or epithelia were then cultured at the air-medium interface on Millicell culture plate inserts (Millipore, Molsheim, France) in Petri dishes containing RPMI 1640 (Invitrogen) supplemented with penicillin (100 U/ml), streptomycin ([…]), HEPES (10 mM), l-glutamine (2 mM), nonessential amino acids (1; Invitrogen, Cergy-Pontoise, France) and 10% heat-inactivated calf serum (Hyclone, South Logan, UT, USA) for one to 7 days. […] Glucose (Sigma, Saint-Quentin Fallavier, France) was used at 20 mM/l and the inhibitor of the ERK pathway (U0126, Cell Sinaling Technologies Ozyme, Saint-Quentin, France) at 10 µmol/l. Cultures were maintained at 37°C in humidified 95% air and 5% CO2.
Ad-CMV-GFP (ref 1060, Vector Biolabs, Philadelphia, PA, USA) and Ad-Catalase (ref 1475, Vector Biolabs) adenoviruses were used to infect the embryonic Wistar rat epithelia. Tissues were incubated with viral particles at the multiplicity of infection of 1000 for 4 h at 37°C in RPMI 1640 as described in (Heinis et al.2012). After infection, tissues were washed twice in HBSS and cultured at the air-medium interface.
Tissues were fixed in 10% formalin and processed for immunohistochemistry, as described previously (Attali et al., 2007). The following antibodies were used: mouse anti-insulin (1:2000; Sigma-Aldrich), rabbit anti-PDX1 (1:1,000), rabbit anti-amylase (Sigma-Aldrich, 1:300), mouse anti-E-cadherin (1:100, BD Biosciences, Le Pont de Claix, France), mouse anti-BrdU (1:2, Amersham, Velizy-Villacoublay, France), rabbit anti-NGN3 (1:1000) (Guillemain et al., 2007), rabbit anti-catalase (1:1000, Rockland Immunochemicals, Gilbertsville, PA USA). The fluorescent secondary antibodies were fluorescein-isothiocyanate anti-rabbit and Texas-red anti-mouse antibodies (1:200, Jackson Immunoresearch, Suffolk, England), and Atexa-fluor anti-rabbit antibody (1:400, Biogenex, Fremont, CA, USA). For NGN3, revelation was performed using the vectastain ABC kit (Vector LAB, Peterborough, England). Photographs were taken using a fluorescence microscope (Leitz DMRB; Leica) and digitized using a Hamamatsu (Middlesex, NJ, USA) C5810 cooled 3CCD camera.
(§2) To quantify the number of NGN3-positive cells, NGN3-positive cells were counted on all sections. Statistical significance was determined using Student's t test.

Nrf2 = conditions: pancreases treated with H2O2; data not shown
Procedure: Total RNA was purified using the Rneasy microkit (Qiagen, Courtaboeuf, France). The cDNA was generated using Superscript reagents (Invitrogen), and the real-time PCR was performed on a 7300 real-time PCR system (Applied Biosystem, Invitrogen) with an SYBR Green PCR master mix. The oligonucleotide sequences for RT-PCR are available on request.

beta cells = conditions: concentrations of H2O2 used
[3] = test system: Notch receptors 1 and 2, the Notch target Hes 1, the Notch ligands Jagged 1, Jagged 2, Delta-like 1; conditions: one day, 50 µM H2O2
Procedure: as §1
Total RNA was purified using the Rneasy microkit (Qiagen, Courtaboeuf, France). […]

early PDX1+ progenitors = conditions: 1 day of culture, 50 µM H2O2
Procedure: The embryos were harvested on E13.5. The dorsal pancreatic bud was dissected, as described previously (Attali et al., 2007). For the depletion of the mesenchyme, the digestive tract was incubated with 0.5 mg/ml collagenase A (Roche, Meyaln, France) at 37°c for 30 min, then washed several times with Hank's balanced solution (Invitrogen, Cergy-Pontoise, France) at 4°c, and the epithelium was mechanically separated from the mesenchyme using needles on 0.25% agar, 25% Hank's balanced solution and 75% RPMI gel (Life Technologies, Invitrogen) in a petri dish. Pancreatic rudiments (epithelium with mesenchyme) or epithelia were then cultured at the air-medium interface on Millicell culture plate inserts (Millipore, Molsheim, France) in Petri dishes containing RPMI 1640 (Invitrogen) supplemented with penicillin (100 U/ml), streptomycin ([…]), HEPES (10 mM), l-glutamine (2 mM), nonessential amino acids (1; Invitrogen, Cergy-Pontoise, France) and 10% heat-inactivated calf serum (Hyclone, South Logan, UT, USA) for one to 7 days. […]
Tissues were fixed in 10% formalin and processed for immunohistochemistry, as described previously (Attali et al., 2007). […] Photographs were taken using a fluorescence microscope (Leitz DMRB; Leica) and digitized using a Hamamatsu (Middlesex, NJ, USA) C5810 cooled 3CCD camera.
(§3) Statistical significance was determined using Student's t test.

[4] = test system: E13.5 rat embryonic pancreases; conditions: one day of culture, 50 µM H2O2
Procedure: as §1, with “CO2. […]” for “CO2.”
as §3

ERK1/2 = test: Western blot of ERK1/2 and MEK phosphorylation in cultured embryonic pancreases; type: cell-based, rat
Procedure: The embryos were harvested on E13.5. The dorsal pancreatic bud was dissected, as described previously (Attali et al., 2007). […] Glucose (Sigma, Saint-Quentin Fallavier, France) was used at 20 mM/l and the inhibitor of the ERK pathway (U0126, Cell Sinaling Technologies Ozyme, Saint-Quentin, France) at 10 µmol/l.
For Western blotting analysis, cells were lysed in Laemmli buffer. Proteins (20µg) were resolved by SDS/PAGE and electrophoretically transferred onto PVDF membrane (Bio-Rad, Hercules, CA, USA). After blocking with milk, membranes were probed with rat anti-p44/42 MAPK (Erk1/2), mouse anti-Phospho-p44/42 MAPK (Erk1/2) (Thr202/Tyr204), anti-Phospho-MEK (all from Cell Signaling Ozyme, ST Quentin en Yvelines, France) and mouse anti-actin (Sigma-Aldrich).Immunoreactive bands were visualized with the SuperSignal System (Pierce; Fisher Scientific, Illkirch, France).
The Mitogen Activated Protein Kinase (MAPK) ERK1/2 pathway, which was recently shown to be sensitive to ROS production in several cell types (Zhang et al., 2013) was examined. […] As a positive control, pancreases were also treated with 20 mM Glucose, an inducer of the ERK1/2 phosphorylation (Briaud et al., 2003). […] To further characterize ERK1/2-dependent effect of ROS on pancreas development, an ERK1/2 inhibitor was used (U0126). To validate the efficiency of the inhibitor, pancreatic explants were first cultured with glucose, in the presence or in the absence of U0126. Activation of ERK1/2 by glucose was abolished in the presence of U0126 (Figure 8A), confirming the efficiency of U0126.

embryonic pancreases = test: NAC given to pregnant rats in drinking water, analysis of embryonic pancreases; type: in vivo, Wistar Rats; conditions: pregnant rats treated with 10 mM NAC from E13.5
Excerpt: Pregnant Wistar Rats were purchased from the Janvier Breeding center (CERJ Janvier, Le Genest Saint-Ile, France). The animals had free access to food pellets and water. Embryonic day 0.5 (E0.5) was considered the first day postcoïtum. Pregnant female were killed by CO2 asphyxiation according to the guidelines of the French Animal Care Committee.
N-Acetyl cystein (Sigma, Saint-Quentin Fallavier, France) treatment was initiated during embryonic life at E13.5 and given into drinking water to pregnant females.
For NGN3, revelation was performed using the vectastain ABC kit (Vector LAB, Peterborough, England).
To quantify the absolute number of insulin-expressing cells, all sections of each pancreatic rudiment were digitized. On every image, the surface area of insulin staining was quantified using ImageJ as described in (Heinis et al.).
as §2
Female pregnant rats at 13.5 days postcoitus were treated with NAC, and the number of NGN3-positive cells was measured.

Question: How did the insulin staining surface [1] turn out when `N#CC(C#N)=NNc1cccc(Cl)c1` [CCCP, Carbonyl cyanide m-chlorophenyl hydrazone] was run?
Answer: decrease

Question: What about the “number of NGN3-positive endocrine progenitor cells, decrease” value [2] of the same molecule?
Answer: ~2 fold

Question: With `OO` [H2O2, hydrogen peroxide] as the molecule, how does the “Nrf2 RNA levels” value (Nrf2) read?
Answer: slight increase

Question: What about the “oxidative stress or damage in the resulting beta cells” value (beta cells) of the same molecule?
Answer: did not produce detectable oxidative stress or damage

Question: And the “expression of Notch pathway genes vs controls” value [3]?
Answer: No difference

Question: And the “insulin surface, larger than controls” value ([1]; H2O2 50µM, analyzed seven days later)?
Answer: 2.6 fold

Question: What about the “rate of cell proliferation (BrdU incorporation) vs controls” value (early PDX1+ progenitors) of the same molecule?
Answer: similar

Question: What about the “rate of apoptosis vs controls” value [4] of the same molecule?
Answer: No difference

Question: And the “activation of the ERK1/2 pathway” value (ERK1/2; 5 or 15 minutes, H2O2 50 µM or 20 mM Glucose)?
Answer: induced

Question: What about the “time after addition at which ERK1/2 activation was observed” value (ERK1/2; H2O2 50 µM) of the same molecule?
Answer: five

Question: And the “number of NGN3 expressing cells” value ([2]; H2O2 at 50 µM, without U0126)?
Answer: increased

Question: What about the “number of NGN3-positive cells, increase” value ([2]; day 1, 50 µM H2O2) of the same molecule?
Answer: ~2 fold

Question: What does the source list for `CC(=O)N[C@@H](CS)C(=O)O` [NAC, N-Acetyl cystein]?
Answer: reduction of the beta cell mass (embryonic pancreases; at E20.5): 2.5 fold; number of NGN3-positive cells, decrease compared to controls (embryonic pancreases; embryonic pancreases analyzed at E20.5): 1.6 fold; insulin staining surface [1]: decrease; number of NGN3-positive endocrine progenitor cells, decrease [2]: ~2 fold

Question: With `N#CC(=C(/N)Sc1ccccc1N)/C(C#N)=C(\N)Sc1ccccc1N` [U0126, reference compound] as the molecule, how does the “activation of ERK1/2 by glucose in the presence of the inhibitor” value (ERK1/2; 20 mM Glucose, U0126 10 µmol/l) read?
Answer: abolished

Question: What about the “activation of the ERK1/2 pathway by H2O2 in the presence of the inhibitor” value (ERK1/2; H2O2 50 µM, U0126 10 µmol/l) of the same molecule?
Answer: blunted

Question: What about the “H2O2-induced increase of NGN3 expressing cells in the presence of the inhibitor” value ([2]; H2O2 at 50 µM with U0126) of the same molecule?
Answer: abrogated
